pEC50: −log10 of the molar value.

In one series the test system is MeWo. Briefly: Scratch assay. It is filed as cell-based, human. The note with it: 20 hours, OGM2 5 uM. On the procedure: (§1) Since there are numerous parallels are found between neural crest cells and cancer during migration, we examined whether OGM could inhibit the migration of cells in human melanoma cell lines (Oppitz et al., 2007; Schriek et al., 2005, Sinnberg et al., 2018). […] A2058. MeWo and WM115 cells were grown to confluence and a stripe of cells were denuded with a p200 pipette tip “scratch” and rinsed with PBS. Cells were treated with OGM or DMSO and incubated in low serum media. Imaging was done at 30 minutes after “scratch” and then 20 hours afterwards. Areas were then measured and normalized to the initial area.

The next series concerns WM115. The series can be described thus: Scratch assay. The format is cell-based, human. Particulars: 20 hours, OGM2 5 uM. On the procedure:
as §1

Another series has as its system A2058. Briefly: Scratch assay. It is filed as cell-based, human. The note with it: 20 hours, OGM2 5 uM.
A further series deals with HEK293. The format is cell-based. The note with it: human. The source says:
FIG. 59A through FIG. 59D: OGM2 causes specific cell death in glioblastoma cells.
Thus, in contrast to erastin, OGM2 induces ferroptosis selectively in cancer cells.

The test system of another series is U87 spheroids. The series can be described thus: GBM spheroid assay. The format is cell-based, human. How it is done:
One thousand cells per well were plated in an ultra-low attachment, round-bottomed, 96-well plate, and spheroids were allowed to form for 3 days. Wells were then exposed to concentrations of vehicle, OGM2 or TMZ or a combination for 3 days. Spheroids were imaged in brightfield at 10× using z-stacks that were collapsed into z-projections in the Gen5 software using the LionheartFx (BioTek™). Automated measurements of the spheroid area were obtained using Gen5 software.
Tumor spheroid cultures are a more physiological model of tumor growth than typical 2D cell culture. Temozolomide sensitive U87 (FIG. 20A) and Temozolomide insensitive U138 (FIG. 20B) glioblastoma cell lines were plated in low attachment round bottom 96-well plates and allowed to form tumor spheroids for 3 days (T0). At T0, spheroids were imaged using Lionheart™ (HCS) High-Content Imaging Systems (Biotek™) and then were exposed to increasing doses of either Temozolomide or OGM2. After 5 days of treatment the spheroids were imaged again (T5). The size (area) of the spheroids after 5 days of treatment was quantified, and the average size of the spheroids at TO is depicted in red.
A GPR68-positive allosteric modulator, Ogerin, was tested. U87glioblastoma cells were plated in low attachment round bottom 96-well plates and allowed to form tumor spheroids for 3 days (TO). These spheroids were treated with Vehicle (DMSO), 10 μM/20 μM Ogerin or 10 μM/20 μM Ogremorphin-2 (OGM2). The spheroids were placed in the Lionheart™ HCS equipped with environmental control (5% CO2 at 37° C.) and imaged every 12 hours.
Spheroids were formed over 3 days using low attachment 96-well round bottom plates and then treated with DMSO or OGM2 in either pH 8 buffered media or pH 6.2 buffered media and grown for 3 days. The size (area) of spheroids was measured in relative area units. […] This increase in growth was abrogated by OGM2.

The next series has as its system endothelial cell (EC). The series can be described thus: Acidification-induced endothelial cell dysfunction. The note with it: OGM2 3 uM; Ogerin 2 uM. The format is cell-based. On the procedure: FIG. 34A through FIG. 34C: GPR68 plays a central role in acidification-induced endothelial cell (EC) dysfunction in vitro, and OGM2 abrogates EC dysfunction. […] These effects were abolished by OGM2 (OGM) at 3 uM and augmented by GPR68 positive allosteric modulator Ogerin (Og) at 2 uM. *P<0.05; Mann-Whitney test, n=5. FIG. 34C: Medium acidification reduced transendothelial resistance (TER), indicative of disruption of EC barrier function.

The next series addresses T1, GPR68/OGR1 (Homo sapiens, UniProt Q15743).
T1 construct: host or cells: Chem-1 (CHEM1-OGR1) cells
Briefly: CHEM1-OGR1 cells Fluo-8 calcium assay, acidified media pH 6.4. The note with it: concentration causing 50% effective inhibition of calcium response to pH 6.4; read-out: EC50. It is filed as cell-based. On the procedure:
Briefly, the methods were: On the day before the assay 20,000 cells per well of CHEM1-OGR1 cells were plated in 10% DMEM containing 10% FBS and 1% Pen/Strep into a 96 well plate. After 24 hours media was removed and cells were stained with 80 μL Fluo-8 calcium indicator dye according to manufacturer's protocol. After staining cells were treated with 20 uL of 4× concentration of test compounds. Using kinetic imaging in the Lionheart HCS fluorescence intensity was continuously measure at 10 frames per second, for 5 seconds before 100 μL of acidified media was added to the well resulting in a pH of 6.4. A ratio of fluorescence intensities prior to addition and at peak were calculated and averaged. The resulting data were platted and using a 4 parameter logistic regression EC50 (the concentration causing 50% effective inhibition) for each test compound was determined.

The next series has as its system LPS-induced ALI. Briefly: LPS-induced acute lung injury. The format is in vivo, mice. An excerpt:
PMN (polymorphonuclear neutrophils).

Another series concerns U87 glioblastoma cells. Briefly: Acid-induced calcium flux in U87 cells. It is filed as cell-based, human. Particulars: medium shifted from pH 7.8 to 6.4. The source says: GPR68 is known to signal through Gq which results in a calcium flux out of the Endoplasmic reticulum. U87 glioblastoma cells were stained, using a calcium-sensitive vital dye Fluo-8, and stimulated with acidification of the media to pH6.4. The cells respond to the acidification with a burst of calcium release, this is inhibited by OGM2.
To determine if GBM cells respond to their own acidic extracellular milieu as a form of autocrine signaling, calcium release in response to acidification was measured. GPR68 is known to couple to the Gq subunit, which acts to release calcium from the ER in a PLC dependent pathway. The medium was shifted from pH 7.8 to 6.4, which triggered a rapid and robust calcium flux, as measured by the fluorescence intensity of calcium-sensitive dye Cal520-AM. This calcium flux was blocked by OGM2 and PLC inhibitor U73122. FIG. 50A, FIG. 50B, FIG. 50C and FIG. 50D.
A general note: Calcium flux is commonly read through the fluorescence of an indicator in the cells.

T1 sequence (Q15743 whole entry): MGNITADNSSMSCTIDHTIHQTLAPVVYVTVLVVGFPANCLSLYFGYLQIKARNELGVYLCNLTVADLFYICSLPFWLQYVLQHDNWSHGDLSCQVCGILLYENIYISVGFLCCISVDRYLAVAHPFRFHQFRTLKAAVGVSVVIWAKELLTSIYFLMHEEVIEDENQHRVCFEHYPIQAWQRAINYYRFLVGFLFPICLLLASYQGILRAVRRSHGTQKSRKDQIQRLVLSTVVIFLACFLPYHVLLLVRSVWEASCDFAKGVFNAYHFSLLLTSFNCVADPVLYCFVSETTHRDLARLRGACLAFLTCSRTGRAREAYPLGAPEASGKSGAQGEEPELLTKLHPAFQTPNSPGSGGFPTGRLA

For the molecule `CCN(c1nc(N)c(C(=O)NC(=N)N)nc1Cl)C(C)C` [EIPA, reference compound], the migration result in the series with MeWo is given as “not”; with WM115, “inhibited migration”; in the series on A2058, “inhibited migration”.

For `CCOc1ccccc1-n1c(C(C)N2CCN(C(=O)COc3ccc(Cl)cc3)CC2)nc2ccccc2c1=O` (centres unmarked) [erastin, reference compound], the “HEK293 cell viability / survival” value in the series with HEK293 is “dramatically reduced HEK293 cell survival”. In the case of `Nc1nc(NCc2ccccc2)nc(-c2ccccc2CO)n1` [Ogerin, reference compound], the spheroid growth rate entry with U87 spheroids was “promoted U87 spheroids growth rate”. In addition, in the series with endothelial cell (EC), the “acidic media (pH 6.5)-induced TNFα, VCAM1 and ICAM1 expression” value was “augmented”. For `COc1ccc(C2=NNC3(S2)C(=O)Nc2ccc(OC)cc23)cc1` (centres unmarked) [OGM17], the negative logarithm of the EC50 (pEC50) (commonly the EC50 on a negative log10 scale, so that one unit is a factor of ten) on GPR68/OGR1 is 6.58. Further, in the series with LPS-induced ALI (LPS 0.7 mg/kg intratracheally, compounds intraperitoneally), the “inflammatory cell infiltrates in BAL” value is reported as “reduced inflammatory cell infiltrates in BAL”. The “reversal of markers of ALI, comparison with OGM2” value in the series on LPS-induced ALI (mouse, in vivo) is reported as “much more potent in reversing the markers of ALI due to LPS in vivo”. As to `COc1ccc2c(c1)CC[C@@H]1[C@@H]2CC[C@]2(C)[C@@H](NCCCCCCN3C(=O)C=CC3=O)CC[C@@H]12` [Compound U73122], the acid-induced calcium flux result in the series with U87 glioblastoma cells was “blocked”. Regarding `CCc1nn2c(C)cc(C)nc2c1Cc1ccc(-c2nnc(C3CCNCC3)o2)cc1` [NE52QQ, reference compound], the acid-induced calcium flux result in the series on U87 glioblastoma cells is “not significant”.

These data come from patent publication US20240327364A1, “THERAPEUTIC TARGETING OF GPR68 TO INDUCE FERROPTOSIS” (University Of Maryland, Baltimore, priority 2023, published 2024).
